Legend:
[1] = system: subclones of RKO colon adenocarcinoma cells (RKOp27 or RKOp21) arrested by Ponasterone A; test: Alamar Blue cell viability assay, cell cycle specific mode of action: cells arrested by ectopic p27Kip1 induced by Ponasterone A versus proliferating cells; assay type: cell-based; conditions: Homo sapiens, RKO p27 induced (arrested) cells, 10 μM Ponasterone A, 72 hours, value = class bound given in Table A, read-out: −logIC50 RKO p27 induced (arrested) (converted)
How it was run: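 RKOp27 or RKOp21 cells, 15000/well in DMEM/10% FCS, either arrested by p27Kip1 induced with 10 μM Ponasterone A or proliferating without inducer; compound added after 24 h, 72 h at 37° C. Alamar Blue fluorescence (544/590 nm), viability as % of untreated cells; −log IC50 reported.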

[2] = system: RKO (RKOp27) human colon adenocarcinoma cells; test: Alamar Blue cell viability assay, anti-proliferative/cytotoxic activity on proliferating RKO subclones; assay type: cell-based; conditions: RKOp27, 72 h, RKO p27 uninduced (proliferating) cells, value = class bound given in Table A, read-out: −logIC50 RKO p27 uninduced (proliferating) (converted)
How it was run: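 RKOp27 subclones (5000 cells/well) were exposed 24 h after seeding to semi-log compound dilutions in DMEM with 10% FCS, in quadruplicate, for 72 h at 37 °C. Viability was read by Alamar Blue fluorescence (544/590 nm) relative to untreated cells (1% DMSO medium). IC50 came from concentration-effect curves and is reported as −log IC50 [mol/l].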

IC50 [1] | SMILES | IC50 [2]
≥ 100 µM | Cc1csc(CNC(=O)OCC2CCc3c(sc(NC(=O)/C=C/c4cccnc4)c3C#N)C2)n1 (stereo not shown) [Example 67, (4-Methyl-thiazol-2-ylmethyl)-carbamic acid 3-cyano-2-((E)-3-pyridin-3-yl-allanoylamino)-4,5,6,7-tetrahydro-benzo[b]thiophen-6-ylmethyl ester] | ≤ 0.501 µM
≥ 100 µM | N#Cc1c(NC(=O)/C=C/c2cccnc2)sc2c1CCC(COC(=O)N1CCCC1)C2 (stereo not shown) [Example 68, Pyrrolidine-1-carboxylic acid 3-cyano-2-((E)-3-pyridin-3-yl-allanoylamino)-4,5,6,7-tetrahydro-benzo[b]thiophen-6-ylmethyl ester] | ≤ 0.501 µM
≥ 100 µM | N#Cc1c(NC(=O)/C=C/c2cccnc2)sc2c1CC[C@H](COC(=O)N1CCCC1)C2 [Example 68a, Pyrrolidme-1-carboxyhc acid (S)-3-cyano-2-((E)-3-pyridin-3-yl-allanoylamino)-4,5,6,7-tetrahydro-benzo[b]thiophen-6-ylmethyl ester] | ≤ 0.501 µM
≥ 100 µM | N#Cc1c(NC(=O)/C=C/c2cccnc2)sc2c1CC[C@@H](COC(=O)N1CCCC1)C2 [Example 68b, Pyrrolidine-1-carboxylic acid (R)-3-cyano-2-((E)-3-pyridin-3-yl-allanoylamino)-4,5,6,7-tetrahydro-benzo[b]thiophen-6-ylmethyl ester] | ≤ 0.501 µM
≥ 100 µM | CCn1nccc1CNC(=O)OC1CCc2c(sc(NC(=O)/C=C/c3cccnc3)c2C#N)C1 (stereo not shown) [Example 69, (2-Ethyl-2H-pyrazol-3-ylmethyl)-carbamic acid 3-cyano-2-((E)-3-pyridin-3-yl-allanoylamino)-4,5,6,7-tetrahydro-benzo[b]thiophen-6-yl ester] | ≤ 0.501 µM
≥ 100 µM | N#Cc1c(NC(=O)/C=C/c2cccnc2)sc2c1CCC(OC(=O)NCC1CCCO1)C2 (stereo not shown) [Example 70, (Tetrahydro-furan-2-ylmethyl)-carbamic acid 3-cyano-2-((E)-3-pyridin-3-yl-allanoylamino)-4,5,6,7-tetrahydro-benzo[b]thiophen-6-yl ester] | 0.501 to 2 µM
≥ 100 µM | Cc1oncc1CNC(=O)OCC1CCc2c(sc(NC(=O)/C=C/c3cccnc3)c2C#N)C1 (stereo not shown) [Example 71, (5-Methyl-isoxazol-4-ylmethyl)-carbamic acid 3-cyano-2-((E)-3-pyridin-3-yl-allanoylamino)-4,5,6,7-tetrahydro-benzo[b]thiophen-6-ylmethyl ester] | 0.501 to 2 µM
≥ 100 µM | Cc1nnc(CNC(=O)OCC2CCc3c(sc(NC(=O)/C=C/c4cccnc4)c3C#N)C2)o1 (stereo not shown) [Example 72, (5-Methyl-[1,3,4]oxadiazol-2-ylmethyl)-carbamic acid 3-cyano-2-((E)-3-pyridin-3-yl-allanoylamino)-4,5,6,7-tetrahydro-benzo[b]thiophen-6-ylmethyl ester] | ≤ 0.501 µM
≥ 100 µM | N#Cc1c(NC(=O)/C=C/c2cccnc2)sc2c1CCC(COC(=O)N1CC(O)C1)C2 (stereo not shown) [Example 73, 3-Hydroxy-azetidine-1-carboxylic acid 3-cyano-2-((E)-3-pyridin-3-yl-allanoylamino)-4,5,6,7-tetrahydro-benzo[b]thiophen-6-ylmethyl ester] | ≤ 0.501 µM
≥ 100 µM | N#Cc1c(NC(=O)/C=C/c2cccnc2)sc2c1CC[C@H](COC(=O)N1CC(O)C1)C2 [Example 73a, 3-Hydroxy-azetidine-1 - carboxylic acid (S)-3-cyano-2-((E)-3-pyridin-3-yl-allanoylamino)-4,5,6,7-tetrahydro-benzo[b]thiophen-6-ylmethyl ester] | ≤ 0.501 µM
≥ 100 µM | N#Cc1c(NC(=O)/C=C/c2cccnc2)sc2c1CC[C@@H](COC(=O)N1CC(O)C1)C2 [Example 73b, 3-Hydroxy-azetidine-l - carboxylic acid (R)-3-cyano-2-((E)-3-pyridin-3-yl-allanoylamino)-4,5,6,7-tetrahydro-benzo[b]thiophen-6-ylmethyl ester] | 0.501 to 2 µM

Source: patent US20110044938A1 (NYCOMED GMBH, priority 2006, published 2011)
